Measurements taken from patent US20070099822A1, “Regulation of tissue mineralization and phosphate metabolism by asarm peptides” (priority 2003, published 2007).
“Also recorded” adds a separate entry of the source. Where two headings read alike, the source gives them in different places. Square brackets hold non-standard residues; d marks the D form. Peptide text beside a SMILES is read from it. pS = N[C@@H](COP(=O)(O)O)C(=O)O

Key:
[1] = target: T1, MEPE-PHEX interaction (Homo sapiens, UniProt P78562); assay: Surface plasmon resonance, peptide solution competition of secPHEX-MEPE binding
T1 construct: to generate a soluble, secreted form of PHEX; made in house; host or cells: secPHEX: mammalian cells (gift, University of Montreal); MEPE: S. frugiperda insect cells
T1 sequence (P78562 46-749 limits assumed): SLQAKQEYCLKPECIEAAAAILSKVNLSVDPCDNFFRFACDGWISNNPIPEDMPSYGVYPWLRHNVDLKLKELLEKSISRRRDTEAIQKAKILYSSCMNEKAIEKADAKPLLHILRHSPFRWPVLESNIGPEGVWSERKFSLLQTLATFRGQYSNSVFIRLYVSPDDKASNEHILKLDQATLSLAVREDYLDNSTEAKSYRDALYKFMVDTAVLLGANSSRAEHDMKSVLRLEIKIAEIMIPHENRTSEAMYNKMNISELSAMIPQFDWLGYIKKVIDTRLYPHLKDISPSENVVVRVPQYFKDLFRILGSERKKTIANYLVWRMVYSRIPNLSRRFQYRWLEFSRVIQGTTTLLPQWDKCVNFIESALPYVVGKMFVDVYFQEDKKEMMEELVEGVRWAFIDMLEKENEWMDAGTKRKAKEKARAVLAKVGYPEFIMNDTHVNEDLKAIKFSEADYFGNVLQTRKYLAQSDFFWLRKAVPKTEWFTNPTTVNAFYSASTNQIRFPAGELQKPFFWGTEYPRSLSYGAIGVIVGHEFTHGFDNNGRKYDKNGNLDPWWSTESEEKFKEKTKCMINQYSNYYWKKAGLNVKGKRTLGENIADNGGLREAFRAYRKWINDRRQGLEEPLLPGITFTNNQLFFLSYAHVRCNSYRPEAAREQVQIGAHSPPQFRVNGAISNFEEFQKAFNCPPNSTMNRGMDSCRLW
Description: Surface Plasmon Resonance: Synthetic peptides & competitive PHEX-MEPE binding studies. For these experiments CM-5 chips containing flow-cells immobilized with MEPE, PHEX and IgG ligands at 6000 RU were used. Just prior to SPR injection, stock solution of specific-peptide (as defined for each experiment; see Table 1), and dissolved in analyte buffer (HBS-P—Zn) […] The following equation was used to compute KDapp values: RU=Bmax/inhib×(peptide(μM))/KDapp+(peptide(μM)). The Bmax/inh value represents the maximal percentage inhibition change in RU (i.e., PHEX-MEPE binding) relative to the “non-peptide” control (0% inhibition of binding), using a constant analyte flow-solution of secPHEX of 250 nM against immobilized MEPE ligand at 6000 RU. […] The control MEPE-RGD peptide had no effect on MEPE-PHEX interactions.

[2] = system: male ICR Swiss mice; assay: Example VI: subcutaneous PO4-ASARM-peptide or etidronate, calcein fluorescence and Sanderson osteoid staining; format: in vivo; conditions: PO4-ASARM-peptide 2 mg/kg/day
Experimental: Subcutaneous administration of PO4-ASARM-peptide, etidronate (EHDP), and calcein. Three separate groups of male ICR Swiss mice (4-5 weeks) were subcutaneously injected once a day (9:00AM), for 12 days except for days 6 and 7 with 50 μL solutions of either (1) Eitidronate (EHDP) (10 mg/kg/day); (2) PO4-ASARM-peptide (2 mg/kg/day); or (3) vehicle consisting of 5 mM HEPES pH 7.4/150 mM NaCL/0.1% BSA. The synthetic PO4-ASARM-peptide was dissolved in vehicle (1.0 mg/mL). Etidronate was first dissolved in 150 mM NaCl and then buffered to pH 7.5 with 1M NaOH to give a 5 mg/mL solution. The 10 mg/kg/day doses of etidronate have previously been reported to inhibit mineralization in rats and were used as positive controls (Trechsel, et al., Am J Physiol 232(3):E298-305, 1977; Bonjour, et al., Am J Physiol 229(2):402-8, 1975). All three groups were subcutaneously injected with calcein (20 mg/kg/day) on days 3, 5, […]. The degree of calcein fluorescence and/or fluorescence-quenching is an indicator of mineralization status (see next section). The calcein injections when given were administered 1 h after the daily injections of PO4-ASARM-peptide, EHDP or vehicle. Animals were then terminated humanely and calvariae plus femurs/tibia were fixed in 70% ethanol (non-decalcified). After fluorescence imaging (see FIG. 35) calvariae were processed in plastic and stained with Sanderson's stain (see below). Five animals per group were used for statistical analysis of fluorescence quenching and histological Sanderson staining.
Calcein fluorescence in mice calvariae, hind-limbs & fluor-imager analysis of mineralization. A Bio-Rad (Hercules, Calif.) FluorImager^max fluorescent imager was used to simultaneously image all the samples from each of the 3 groups (15 animals; five animals per group). This consisted of 10 tibia/femurs and 5 calvariae per group. Samples were placed on top of the FluorImager plate contained within a light-tight box. Ultra-violet light was used to generate calcein-mediated epi-fluorescence and the fluorescent-image was captured on a −40° C., peltier-cooled, 1,340×1040 pixel CCD resolution, CCD digital-camera. Quantitation of fluorescence was carried out using Quantity-1 (Bio-Rad, Hercules, Calif.) fluorescence-software. Pixel saturation was prevented by internal software calibration and exposure adjustment. All fluorescence readings were thus accurately quantitative and non-saturating. Photo-micrographic UV fluorescent analysis of calvarial cross sections embedded in plastic and mounted as slides (<100 micrometer sections) was also undertaken and a description of the fixation and processing is given in the next section.
Sanderson-staining and fluorescence detection of calvarial osteoid & mineralized bone. Staining of non-decalcified calvarial sections was performed using the method described by Sanderson and Bachus (Staining technique to differentiate mineralized and demineralized bone in ground sections, J Histotechnol 20(2): 119-122, 1997). This technique provides differential staining between unmineralized osteoid and mineralized bone. Prior to staining, calvariae were dissected and attached tissue removed. Calvariae were then placed in 70% ethanol for further fixation as described by Sanderson and Bachus (supra). After fixing and processing undecalcified calvariae were embedded in plastic (LR-white acrylic resin (London Resin Co., Reading, England)) as previously described (Garrett, et al., Selective inhibitors of the osteoblast proteasome stimulate bone formation in vivo and in vitro, J Clin Invest 111(11):1771-1782, 2003). Plastic embedded sections were ground to <100 micrometers using a specialized grinding-pestle as described by Donath and Breuner (A method for the study of undecalcified bones and teeth with attached soft tissues. The Sage-Schliff (sawing and grinding) technique, J Oral Pathol 11(4):318-26, 1982). […]

[3] = system: mouse osteoblast cell-line 2T3; assay: Mineralized bone matrix formation assay (von Kossa), BMP2-induced; format: cell-based; conditions: 2T3 cells, BMP2 100 ng/mL; Hu-MEPE 10-800 ng/mL, ASARM-peptide 60 and 300 ng/mL, control peptide 300 ng/mL
Description: Mineralized bone matrix formation assay. A mouse osteoblast cell-line (2T3-cells) were monitored using a mineralized matrix formation assay as described by Bhargava et al. (Ultrastructural analysis of bone nodules formed in vitro by isolated fetal rat calvaria cells. Bone 9:155-63, 1988) and cultured as described previously (Bhargava et al., supra; Chen et al. Differential roles for bone morphogenetic protein (BMP) receptor type IB and IA in differentiation and specification of mesenchymal precursor cells to osteoblast and adipocyte lineages. J Cell Biol 142:295-305, 1998; and Zhao, et al. Bone morphogenetic protein receptor signaling is necessary for normal murine postnatal bone formation. J Cell Biol 157:1049-60, 2002). Mineralization of the murine osteoblastic 2T3 cell-line has been extensively studied using physical techniques, electron microscopy and histological techniques. This cell line (2T3) undergoes exogenous BMP2-induced mineralized-matrix indistinguishable from normal bone-mineral hydroxyapatite in-vitro (Bhargava et al., supra; Chen et al., supra; and Zhao et al., supra). The cells were plated in 24-well culture plates at density of 2×10^4 cells/well and cultured with minimal essential medium (MEM) supplemented with 10% FCS. When the cells reached confluency (day 0), the medium was changed to MEM containing 5% FCS, 100 μg/mL ascorbic acid and 5 mM β-glycerol phosphate with or without 100 ng/mL of BMP-2. The effects of Hu-MEPE, MEPE ASARM-peptide and control peptide at different doses (see results section) in the absence and presence of BMP2 were measured using the von Kossa stain for mineralization. The medium was changed every other day and fresh reagents were added. Von Kossa stain of mineralized bone matrix was performed as follows. The cell cultures were washed with PBS twice, fixed in phosphate buffered formalin for 10 min, and then washed with water, and serially dehydrated in 70%, 95%, and 100% ethanol, twice each and air dried. The plates were rehydrated from 100% to 95% to 80% ethanol to water before staining. The water was removed, a 2% silver nitrate solution was added, and the plates were exposed to sunlight for 20 min, after which the plates were rinsed with water. 5% sodium thiosulfate was added for 3 min and the plates were then rinsed with water. The modified van Gieson stain was then used as a counterstain after the von Kossa stain. The unmineralized collagen matrix can be recognized by the yellow/red van Gieson stain. The acid fuchsin solution (5 part of 1% acid fuchsin, 95 part of picric acid, and 0.25 part of 12 M HCl) was added for 5 min. The plates were washed with water, and then 2×95% ethanol and 2×100% ethanol, and dried for image analysis. The area of von Kossa stained matrix was quantitated as previously described (Chen et al., supra). Briefly matrix was quantified by automated image analysis using a video analysis program (Jandel Scientific, San Rafael Calif.) and also a Bio-Rad (Hercules, Calif.) Quantity-1 image analysis capture program. A video screen camera (CCD/RGB; Sony Corp., Park Ridge, N.J.) linked to a microscope (model BH2; Olympus Corp., Precision Instruments Division, Lake Success, N.Y.) equipped with metallurgical lens was used to image plates.

Molecule	Bmax/inh, maximal percentage-inhibition of MEPE-PHEX binding ([1]; 250 nM secPHEX, MEPE 6000 RU) [%]	Kd ([1]; 250 nM secPHEX, MEPE 6000 RU, read-out: apparent KDapp, solution competition of MEPE-PHEX binding) [µM]	Kd ([1]; apparent KDapp, solution competition of secPHEX-MEPE binding, 250 nM secPHEX, MEPE 6000 RU (FIG. 34 legend), heading: apparent KDapp, solution competition of secPHEX-MEPE binding) [µM]	inhibition of MEPE-PHEX interaction ([1]; peptide pre-mixed with secPHEX, MEPE-RGD up to 85 μM)	tibiae-femurs fluorescence-signal reduction relative to vehicle [2] [%]	increase of osteoid layer thickness relative to vehicle ([2]; etidronate 10 mg/kg/day) [fold]	percentage quenching of calvarial calcein fluorescence relative to vehicle ([2]; etidronate 10 mg/kg/day) [%]	calvariae calcein fluorescence ([2]; etidronate 10 mg/kg/day, s.c. 12 days, vehicle 1100.5)	calvarial osteoid relative thickness (Sanderson staining) ([2]; etidronate 10 mg/kg/day, vehicle 2.3)	tibiae-femurs calcein fluorescent intensity ([2]; vehicle 268.52)	effect on BMP2-mediated mineralization (von Kossa staining) [3]
N=C(N)NCCC[C@H](N)C(=O)N[C@@H](CC(=O)O)C(=O)N[C@@H](CC(=O)O)C(=O)N[C@@H](CO)C(=O)N[C@@H](CO)C(=O)N[C@@H](CCC(=O)O)C(=O)N[C@@H](CO)C(=O)N[C@@H](CO)C(=O)N[C@@H](CC(=O)O)C(=O)N[C@@H](CO)C(=O)NCC(=O)N[C@@H](COP(=O)(O)O)C(=O)N[C@@H](CO)C(=O)N[C@@H](COP(=O)(O)O)C(=O)N[C@@H](CCC(=O)O)C(=O)N[C@@H](COP(=O)(O)O)C(=O)N[C@@H](CC(=O)O)C(=O)NCC(=O)N[C@@H](CC(=O)O)C(=O)O [PO4-ASARM-peptide, RDDSSESSDSG(Sp)S(Sp)E(Sp)DGD] (H-RDDSSESSDSG[pS]S[pS]E[pS]DGD-OH)	68	15	15	able to inhibit; also recorded: dramatic dose-dependent inhibition	44.5	3.5	62	568.7 fluorescent intensity units	8.0	148.9	–
CGSGYTDLQERGDNDISPFSGDGQPF (Homo sapien) [control peptide, reference compound]	–	–	–	–	–	–	–	–	–	–	failed to elicit any changes in mineralization
